Here are results for 21 molecules from PubChem BioAssay AID328 (DTP/NCI, 2004).

SMILES strings stand for the structures. Inconclusive results and toxic doses are left out.

This test concerns BDF1 mice, P388 leukemia ip, median survival T/C. Put plainly: NCI In Vivo Anticancer Drug Screen. Data for tumor model P388 Leukemia (intraperitoneal) in B6D2F1 (BDF1) mice. Particulars: endpoint: median survival time, higher = longer survival. The essentials: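 Antitumour effect was judged in vivo: survival in drug-treated mice, normalised to that of vehicle-dosed controls, gives the reported T/C.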

The mark [1] stands for this setting: dose: 50.0 mg/kg/injection, schedule: Q01DX009 (ip), vehicle: saline with Tween-80.
The mark [2] stands for this setting: dose: 100.0 mg/kg/injection, schedule: Q01DX009 (ip), vehicle: saline with Tween-80.
The mark [3] stands for this setting: dose: 50.0 mg/kg/injection, schedule: Q01DX009 (ip), vehicle: saline.
The mark [4] stands for this setting: dose: 200.0 mg/kg/injection, schedule: Q01DX009 (ip), vehicle: saline with Tween-80.
Where [5] appears, read: dose: 400.0 mg/kg/injection, schedule: Q01DX009 (ip), vehicle: saline with Tween-80.

For the molecule `CC12CCCN(CCCl)C1CCC1C2CCC2(C)C1CCCN2CCCl` (stereo unspecified), the T/C is 98 % of control (dose: 0.38 mg/kg/injection, schedule: Q01DX001 (ip), vehicle: saline); 102 % of control (dose: 0.75 mg/kg/injection, schedule: Q01DX001 (ip), vehicle: saline); 102 % of control (dose: 0.78 mg/kg/injection, schedule: Q01DX001 (ip), vehicle: saline); 109 % of control (dose: 1.5 mg/kg/injection, schedule: Q01DX001 (ip), vehicle: saline); 100 % of control (dose: 1.56 mg/kg/injection, schedule: Q01DX001 (ip), vehicle: saline); 107 % of control (dose: 3.13 mg/kg/injection, schedule: Q01DX001 (ip), vehicle: saline). Besides, the T/C (dose: 6.25 mg/kg/injection, schedule: Q01DX001 (ip), vehicle: saline) is 116 % of control.
On to `CCCCCCCCSC(=S)SCC(=O)O`, for which the T/C is, setting by setting: under setting [1], 100 % of control; under setting [2], 100 % of control.
`CCOC(=O)C(C)C(O)(c1ccccc1)c1ccccc1` (stereo unspecified): the T/C runs as follows: (dose: 100.0 mg/kg/injection, schedule: Q04DX003 (ip), vehicle: Klucel (hydroxypropylcellulose) (HPC)) 100 % of control; (dose: 200.0 mg/kg/injection, schedule: Q04DX003 (ip), vehicle: Klucel (hydroxypropylcellulose) (HPC)) 104 % of control; (dose: 400.0 mg/kg/injection, schedule: Q04DX003 (ip), vehicle: Klucel (hydroxypropylcellulose) (HPC)) 104 % of control.
As for `CCc1c(Cl)c(C)cc(O)c1Cl`, the T/C is, setting by setting: (dose: 18.0 mg/kg/injection, schedule: Q01DX009 (ip), vehicle: gum acacia) 112 % of control; (dose: 25.0 mg/kg/injection, schedule: Q01DX009 (ip), vehicle: gum acacia) 112 % of control; (dose: 25.0 mg/kg/injection, schedule: Q04DX003 (ip), vehicle: gum acacia) 88 % of control; (dose: 50.0 mg/kg/injection, schedule: Q01DX009 (ip), vehicle: gum acacia) 100 % of control; (dose: 50.0 mg/kg/injection, schedule: Q04DX003 (ip), vehicle: gum acacia) 92 % of control; (dose: 100.0 mg/kg/injection, schedule: Q04DX003 (ip), vehicle: gum acacia) 96 % of control.
As to `C[N+]1(C)CCCC1`, the T/C is 100 % of control (dose: 6.25 mg/kg/injection, schedule: Q04DX003 (ip), vehicle: saline) and 100 % of control (dose: 12.5 mg/kg/injection, schedule: Q04DX003 (ip), vehicle: saline).
Take `CC(C)C(OCc1ccccc1)C(=O)O` (stereo unspecified): the T/C (dose: 50.0 mg/kg/injection, schedule: Q04DX003 (ip), vehicle: saline with Tween-80) is 100 % of control; the T/C (dose: 100.0 mg/kg/injection, schedule: Q04DX003 (ip), vehicle: saline with Tween-80) is 108 % of control; the T/C (dose: 200.0 mg/kg/injection, schedule: Q04DX003 (ip), vehicle: saline with Tween-80) is 108 % of control; the T/C (dose: 400.0 mg/kg/injection, schedule: Q04DX003 (ip), vehicle: saline with Tween-80) was 108 % of control.
Consider `Cn1c(=O)[nH]c2ccccc2c1=O`, for which the T/C (dose: 100.0 mg/kg/injection, schedule: Q01DX001 (ip), vehicle: Klucel (hydroxypropylcellulose) (HPC)) was 104 % of control; the T/C (dose: 200.0 mg/kg/injection, schedule: Q01DX001 (ip), vehicle: Klucel (hydroxypropylcellulose) (HPC)) is 104 % of control; the T/C (dose: 400.0 mg/kg/injection, schedule: Q01DX001 (ip), vehicle: Klucel (hydroxypropylcellulose) (HPC)) is 107 % of control.
Regarding `COC(=O)C(N)CN` (stereo unspecified), the T/C (dose: 175.0 mg/kg/injection, schedule: Q01DX009 (ip), vehicle: saline with Tween-80) is 89 % of control.
Take `CCCCCCCCCCCCNC(=O)CCC(=O)O`: the T/C runs as follows: (dose: 37.5 mg/kg/injection, schedule: Q01DX009 (ip), vehicle: saline with Tween-80) 91 % of control; (dose: 75.0 mg/kg/injection, schedule: Q01DX009 (ip), vehicle: saline with Tween-80) 87 % of control.
In the case of `CC1=CC(=O)c2c(O)ccc(O)c2C1=O`, the T/C is 114 % of control (dose: 1.25 mg/kg/injection, schedule: Q01DX009 (ip), vehicle: alcohol) and 122 % of control (dose: 2.5 mg/kg/injection, schedule: Q01DX009 (ip), vehicle: alcohol).
As to `O=C1C(=O)c2ccccc2-c2ccccc21`, the T/C runs as follows: (dose: 0.75 mg/kg/injection, schedule: Q01DX009 (ip), vehicle: carboxymethylcellulose (CMC)) 100 % of control; (dose: 1.5 mg/kg/injection, schedule: Q01DX009 (ip), vehicle: carboxymethylcellulose (CMC)) 109 % of control; (dose: 3.0 mg/kg/injection, schedule: Q01DX009 (ip), vehicle: carboxymethylcellulose (CMC)) 95 % of control; (dose: 6.0 mg/kg/injection, schedule: Q01DX009 (ip), vehicle: carboxymethylcellulose (CMC)) 114 % of control.
Turning to `C=C/C=C/CCC(=O)C=[N+]=[N-]`, the T/C is 91 % of control (dose: 50.0 mg/kg/injection, schedule: Q01DX005 (ip), vehicle: saline with Tween-80); 97 % of control (dose: 100.0 mg/kg/injection, schedule: Q01DX005 (ip), vehicle: saline with Tween-80); 101 % of control (dose: 200.0 mg/kg/injection, schedule: Q01DX005 (ip), vehicle: saline with Tween-80).
Consider `NNc1cnc2ccccc2n1`, for which the T/C (dose: 37.5 mg/kg/injection, schedule: Q04DX003 (ip), vehicle: saline with Tween-80) is 100 % of control; the T/C (dose: 75.0 mg/kg/injection, schedule: Q04DX003 (ip), vehicle: saline with Tween-80) was 191 % of control; the T/C (dose: 150.0 mg/kg/injection, schedule: Q04DX003 (ip), vehicle: saline with Tween-80) was 100 % of control.
Turning to `COc1cc(NCc2ccc3nc(N)nc(N)c3c2C)cc(OC)c1OC`, the T/C was 154 % of control (dose: 5.0 mg/kg/injection, schedule: Q01DX009 (ip), vehicle: sodium bicarbonate); 177 % of control (dose: 10.0 mg/kg/injection, schedule: Q01DX009 (ip), vehicle: sodium bicarbonate); 113 % of control (dose: 12.5 mg/kg/injection, schedule: Q01DX009 (oral), vehicle: sodium bicarbonate); 255 % of control (dose: 20.0 mg/kg/injection, schedule: Q01DX009 (ip), vehicle: saline with Tween-80); 227 % of control (dose: 20.0 mg/kg/injection, schedule: Q01DX009 (ip), vehicle: sodium bicarbonate); 398 % of control (dose: 30.0 mg/kg/injection, schedule: Q01DX009 (ip), vehicle: saline with Tween-80). The T/C was 243 % of control (dose: 40.0 mg/kg/injection, schedule: Q01DX009 (ip), vehicle: sodium bicarbonate); 97 % of control (dose: 44.0 mg/kg/injection, schedule: Q01DX009 (ip), vehicle: saline with Tween-80); 170 % of control (dose: 50.0 mg/kg/injection, schedule: Q01DX009 (oral), vehicle: sodium bicarbonate); 95 % of control (dose: 67.0 mg/kg/injection, schedule: Q01DX009 (ip), vehicle: saline with Tween-80); 89 % of control (dose: 100.0 mg/kg/injection, schedule: Q01DX009 (oral), vehicle: sodium bicarbonate).
Take `CCN1c2ccccc2CC(CCN(C)Cc2ccccc2)(C(N)=O)c2ccccc21` (stereo unspecified): under setting [2], the T/C is 101 % of control.
In the case of `CC(C)(C)OC(=O)CNC(=O)CCl`, the T/C runs as follows: (dose: 50.0 mg/kg/injection, schedule: Q04DX003 (ip), vehicle: saline) 100 % of control; (dose: 100.0 mg/kg/injection, schedule: Q04DX003 (ip), vehicle: saline) 100 % of control; (dose: 200.0 mg/kg/injection, schedule: Q04DX003 (ip), vehicle: saline) 108 % of control.
Take `CCOC(=O)C1=C(Nc2ccc([N+](=O)[O-])cc2)CCCC1`: under setting [3], the T/C is 87 % of control.
Take `CC1(C)C=CN2C(=O)C3=CCCN3C(=O)C2CC12Nc1ccccc1C2=O` (stereo unspecified): the T/C is 94 % of control (dose: 6.25 mg/kg/injection, schedule: Q01DX009 (ip), vehicle: saline); 104 % of control (dose: 12.5 mg/kg/injection, schedule: Q01DX009 (ip), vehicle: saline); 110 % of control (dose: 25.0 mg/kg/injection, schedule: Q01DX009 (ip), vehicle: saline); 100 % of control under setting [3].
Regarding `CCOC(=O)c1ccc(NS(=O)(=O)c2ccc(C)cc2)cc1`, the T/C by setting is: under setting [2], 106 % of control; under setting [4], 106 % of control; under setting [5], 88 % of control.
In the case of `CCOC(=O)C12CC=CC(CCC1)/C2=N\Nc1ccccc1` (stereo unspecified), the T/C under setting [2] is 90 % of control, the T/C under setting [4] is 90 % of control and the T/C under setting [5] was 117 % of control.
For `Cc1ccc(S(=O)(=O)OCCOC(=O)OCCOS(=O)(=O)c2ccc(C)cc2)cc1`, the T/C under setting [1] is 99 % of control, the T/C under setting [2] was 100 % of control and the T/C under setting [4] was 99 % of control.
